One data set addresses T1, CDK1/CyclinB (Homo sapiens, UniProt P06493).
T1 construct: purchased proqinase 0134-0135-1
Put plainly: Kinase activity assay, ADP-Glo (CDK1/CyclinB). The data set is classed as biochemical. Particulars: Table 18; read-out: CDK1/B IC50.

Data set [1] is described as follows: Thermodynamic solubility testing in pH 7.4 phosphate buffer. Particulars: sodium phosphate buffer, aqueous buffer, thermodynamic from solid, 25 °C. Format: physicochemical. As for the experimental part: The thermodynamic solubility of the compounds in a pH 7.4 phosphate buffer was determined. Both the sample supernatant and the standard of a known concentration were tested by LC/MS/MS.
15.6 g of NaH2PO4·2H2O was weighed out, placed into a 1 L glass flask, and dissolved in 1 L of deionized water. The pH of the solution was approximately 4.7, and then the pH was adjusted to 7.4 with 10 M NaOH.
1 mg of each compound powder was accurately weighed out and placed in a glass tube. The pH 7.4 sodium phosphate buffer was added to the glass tube, with 1 mL of the buffer added for each milligram of the compound powder. A stirring bar was added to each glass tube, and the glass tube was closed with a cap. […] The observations in each glass tube were recorded. […] The recorded observations and dilution factors
1 mg of each compound powder was accurately weighed out and added to a glass tube, and DMSO was added to each glass tube, with 1 mL of DMSO added for each milligram of the compound powder. […] Samples were analyzed by LC/MS/MS. […]
All calculations were performed using Microsoft Excel. Samples were analyzed by LC/MS/MS and quantified based on the standard of a known concentration. The solubility of the test compounds was calculated using the following formula: [Sample] = Area Ratio sample × DF sample × [STD] / Area Ratio STD DF: dilution factor. […]

In the next data set the target is CYP2C19 (Homo sapiens, UniProt P33261). Put plainly: biochemical.
CYP2C19, sequence (P33261 whole entry): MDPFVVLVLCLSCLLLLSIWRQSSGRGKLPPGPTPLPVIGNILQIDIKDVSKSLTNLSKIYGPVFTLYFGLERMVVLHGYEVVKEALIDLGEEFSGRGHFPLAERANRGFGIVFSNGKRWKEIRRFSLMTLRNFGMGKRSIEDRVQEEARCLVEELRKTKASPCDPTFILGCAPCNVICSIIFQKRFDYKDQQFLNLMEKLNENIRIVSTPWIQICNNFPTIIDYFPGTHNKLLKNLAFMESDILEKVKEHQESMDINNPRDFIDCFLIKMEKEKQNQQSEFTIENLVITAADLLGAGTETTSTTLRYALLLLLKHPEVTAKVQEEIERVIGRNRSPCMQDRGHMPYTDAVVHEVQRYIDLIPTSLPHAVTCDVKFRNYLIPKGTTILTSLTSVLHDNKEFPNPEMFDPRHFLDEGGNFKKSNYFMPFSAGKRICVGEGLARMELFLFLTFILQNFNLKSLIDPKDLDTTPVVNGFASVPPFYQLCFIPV
A further data set has as its target T2, CDK9/CyclinT1 (Homo sapiens, UniProt P50750).
T2 construct: purchased Wuxi Biortus BP480/792/691
Put plainly: Kinase activity assay, ADP-Glo (CDK9/CyclinT1). Format: biochemical. Particulars: Table 18; read-out: CDK9/T1 IC50. As to the method: The starting concentration for the in vitro CDK (CDK2 and CDK9) kinase activity assay was 1 µM and was 3-fold diluted to a total of 10 concentrations, and each concentration was tested in duplicate. The compound PHA-793887 was used as a control compound.
A 1× kinase reaction buffer (40 mM Tris-HCl, pH 7.4, 20 mM […], 0.1 mg/mL BSA, 50 µM DTT), 1 volume of 5× kinase reaction buffer, and 4 volumes of water were prepared, and DTT (final concentration: 50 µM) was added. 50 nL of diluted compound working solution (final concentration of DMSO: 1%) was transferred to each well of a reaction plate (784075, Greiner) using Echo655. The reaction plate was sealed with a plate sealing film and centrifuged at 1000 g for 1 min. 2× enzyme (0.3 ng/µL CDK2/CyclinE1 or CDK9/CyclinT1) was prepared using the 1× kinase reaction buffer. 2.5 µL of the above kinase solution was added to each well. The reaction plate was sealed with a plate sealing film, centrifuged at 1000 g for 1 min, and left to stand at room temperature for 10 min. A mixture of 2× kinase substrate and ATP was prepared using the 1× kinase reaction buffer. 2× CDK2/CylinE1 kinase substrate was 0.4 mg/mL Histone H1 and 30 µM ATP. 2.5 µL of the mixture of 2× Histone H1 and ATP was added to the reaction plate. The plate was centrifuged at 1000 g for 30 s, and the reaction was started. […] The luminescence signals were obtained using Envision 2104. […]
(In general: ADP-Glo turns the ADP formed in a reaction into a luminescent signal.)

The target in a further data set is CYP2C9 (Homo sapiens, UniProt P11712). Nature of the data set: biochemical.
CYP2C9, sequence (P11712 whole entry): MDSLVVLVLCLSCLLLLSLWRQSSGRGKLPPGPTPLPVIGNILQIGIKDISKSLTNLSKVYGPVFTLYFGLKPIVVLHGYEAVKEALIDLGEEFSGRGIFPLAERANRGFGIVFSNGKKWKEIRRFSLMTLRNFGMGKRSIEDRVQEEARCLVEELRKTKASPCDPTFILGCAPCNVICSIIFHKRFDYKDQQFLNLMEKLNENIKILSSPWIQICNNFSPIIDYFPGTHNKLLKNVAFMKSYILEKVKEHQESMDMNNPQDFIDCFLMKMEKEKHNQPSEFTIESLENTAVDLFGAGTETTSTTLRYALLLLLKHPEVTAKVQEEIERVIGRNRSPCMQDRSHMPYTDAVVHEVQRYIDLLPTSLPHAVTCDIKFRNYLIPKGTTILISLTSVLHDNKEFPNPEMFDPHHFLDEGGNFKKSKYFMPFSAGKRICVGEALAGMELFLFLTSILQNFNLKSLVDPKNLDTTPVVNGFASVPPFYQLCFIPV
In the next data set the target is T3, CDK6/CyclinD3 (Homo sapiens, UniProt Q00534).
T3 construct: purchased Carna 04-107
T3 sequence (Q00534 whole entry): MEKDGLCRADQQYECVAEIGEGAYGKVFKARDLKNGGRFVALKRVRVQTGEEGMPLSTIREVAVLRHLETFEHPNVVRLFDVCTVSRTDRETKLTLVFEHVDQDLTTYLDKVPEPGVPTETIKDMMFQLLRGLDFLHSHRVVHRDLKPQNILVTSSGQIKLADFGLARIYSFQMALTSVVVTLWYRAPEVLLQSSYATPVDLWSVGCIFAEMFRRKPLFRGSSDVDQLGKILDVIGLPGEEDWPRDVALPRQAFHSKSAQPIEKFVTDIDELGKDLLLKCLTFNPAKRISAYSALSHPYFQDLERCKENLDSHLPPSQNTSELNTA
T3 sequence (P30281 whole entry partner): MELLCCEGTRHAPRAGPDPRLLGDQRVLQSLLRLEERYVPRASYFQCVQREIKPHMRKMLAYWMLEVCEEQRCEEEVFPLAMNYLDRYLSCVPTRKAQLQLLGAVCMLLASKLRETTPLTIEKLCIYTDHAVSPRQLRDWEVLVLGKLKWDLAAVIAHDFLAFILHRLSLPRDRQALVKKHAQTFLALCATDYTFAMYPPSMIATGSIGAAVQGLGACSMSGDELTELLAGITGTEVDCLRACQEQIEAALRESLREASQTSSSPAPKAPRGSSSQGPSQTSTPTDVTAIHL
Nature of the data set: Kinase activity assay, mobility shift assay (CDK6/CyclinD3). The data set is classed as biochemical. Particulars: Table 18; read-out: CDK6/D3 IC50. As for the experimental part: In vitro CDK kinase activity was tested using a mobility shift assay. […] A proper amount of kinase was added to the 1× kinase buffer to prepare a 2.5× enzyme solution. 5× compound dilutions (1× kinase buffer, 10% DMSO) corresponding to the test concentrations of the compounds were prepared. […] 5 µL of 5× compound dilution and 10 µL of 2.5× enzyme solution were added to reaction wells of a 384-well reaction plate. After thorough mixing, the plate was incubated at room temperature for 10 min. […] The reaction plate was incubated at 28 °C for 60 min (biochemical incubator model: SPX-100B-Z). 30 µL of stop solution was added to the 384-well reaction plate to stop the reactions, and the plate was centrifuged at 1000 rpm for 1 min.
IC50 values for the compounds were obtained by fitting using XLFit excel add-in version 5.4.0.8. Fitting formula: Y = Bottom + (Top−Bottom)/(1+((IC50/X))^(∧)HillSlope). [formula]

The results in this text go back to EP4567040A1, “CRYSTAL FORM OF FUSED TRICYCLIC DERIVATIVE AND PREPARATION METHOD” (Jiangsu Hengrui Pharmaceuticals Co., Ltd., priority 2022, dated 2024).

Each structure is given as a SMILES string. pIC50: −log10 of the molar value. In brackets after ≈: the same amount, converted by molar mass.

T2 sequence (P50750 whole entry, species assumed): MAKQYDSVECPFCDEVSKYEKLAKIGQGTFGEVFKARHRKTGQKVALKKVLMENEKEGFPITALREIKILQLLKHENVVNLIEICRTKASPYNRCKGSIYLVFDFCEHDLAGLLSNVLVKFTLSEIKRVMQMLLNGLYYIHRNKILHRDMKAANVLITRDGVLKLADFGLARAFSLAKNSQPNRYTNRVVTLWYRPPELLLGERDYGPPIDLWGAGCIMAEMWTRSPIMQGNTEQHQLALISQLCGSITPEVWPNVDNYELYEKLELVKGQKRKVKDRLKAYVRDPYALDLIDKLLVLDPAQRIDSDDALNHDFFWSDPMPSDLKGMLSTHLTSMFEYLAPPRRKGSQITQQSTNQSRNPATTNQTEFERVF
T2 sequence (O60563 whole entry partner, species assumed): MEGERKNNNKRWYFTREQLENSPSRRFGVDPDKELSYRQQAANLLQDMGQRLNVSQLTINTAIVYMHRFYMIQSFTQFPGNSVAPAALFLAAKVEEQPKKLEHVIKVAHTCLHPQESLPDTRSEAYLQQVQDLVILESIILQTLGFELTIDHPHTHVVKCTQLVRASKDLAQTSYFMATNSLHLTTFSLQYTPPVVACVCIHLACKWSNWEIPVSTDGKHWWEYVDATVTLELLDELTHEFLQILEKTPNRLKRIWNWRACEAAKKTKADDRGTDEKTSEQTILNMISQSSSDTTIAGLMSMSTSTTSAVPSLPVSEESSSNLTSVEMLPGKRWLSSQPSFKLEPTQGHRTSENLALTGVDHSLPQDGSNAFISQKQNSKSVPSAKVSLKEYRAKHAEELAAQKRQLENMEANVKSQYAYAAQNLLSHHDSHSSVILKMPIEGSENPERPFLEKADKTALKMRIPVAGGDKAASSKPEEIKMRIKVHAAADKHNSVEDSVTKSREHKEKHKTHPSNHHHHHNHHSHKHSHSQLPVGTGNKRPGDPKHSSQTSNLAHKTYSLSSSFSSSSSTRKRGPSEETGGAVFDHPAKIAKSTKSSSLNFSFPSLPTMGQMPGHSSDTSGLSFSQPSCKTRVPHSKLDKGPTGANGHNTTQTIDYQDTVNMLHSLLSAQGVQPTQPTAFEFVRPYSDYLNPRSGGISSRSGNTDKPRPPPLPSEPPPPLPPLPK
T1 sequence (P06493 whole entry): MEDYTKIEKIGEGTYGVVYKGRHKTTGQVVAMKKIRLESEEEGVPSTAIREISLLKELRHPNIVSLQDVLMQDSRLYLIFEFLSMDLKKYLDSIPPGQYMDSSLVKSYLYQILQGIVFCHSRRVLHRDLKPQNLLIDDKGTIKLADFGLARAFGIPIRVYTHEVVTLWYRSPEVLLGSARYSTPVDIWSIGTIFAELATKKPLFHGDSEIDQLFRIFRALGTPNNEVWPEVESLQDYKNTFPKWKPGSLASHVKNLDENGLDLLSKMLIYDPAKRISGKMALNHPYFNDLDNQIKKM
T1 sequence (P14635 whole entry partner): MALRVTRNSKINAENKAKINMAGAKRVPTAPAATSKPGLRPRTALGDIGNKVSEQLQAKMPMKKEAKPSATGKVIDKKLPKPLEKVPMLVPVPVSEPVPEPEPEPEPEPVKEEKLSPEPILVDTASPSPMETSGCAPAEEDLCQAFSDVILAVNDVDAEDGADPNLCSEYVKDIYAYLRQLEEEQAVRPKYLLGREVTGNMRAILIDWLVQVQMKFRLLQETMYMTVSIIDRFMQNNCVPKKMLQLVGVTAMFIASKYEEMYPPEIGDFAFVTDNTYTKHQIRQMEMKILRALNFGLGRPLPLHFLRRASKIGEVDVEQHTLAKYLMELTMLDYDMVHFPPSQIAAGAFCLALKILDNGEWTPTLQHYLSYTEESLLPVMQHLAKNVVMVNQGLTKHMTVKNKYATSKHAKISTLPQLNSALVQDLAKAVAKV
Procedure for CYP2C19: (§1) The effects of different concentrations of the test compounds on the metabolic reactions of phenacetin (CYP1A2), diclofenac sodium (CYP2C9), S-mephenytoin (CYP2C19), bufuralol hydrochloride (CYP2D6), and midazolam (CYP3A4/5) were assessed by liquid chromatography-tandem mass spectrometry (LC/MS/MS).
(§2) Then, 200 µL of an acetonitrile solution containing 3% formic acid and 40 nM internal standard verapamil was added, and the mixture was centrifuged at 4000 rpm for 50 min. The mixture was cooled on ice for 20 min and centrifuged at 4000 rpm for 20 min to precipitate protein. 200 µL of the supernatant was taken for LC/MS/MS analysis.
(§3) The peak area was calculated based on the chromatogram. The residual activity proportion (%) was calculated using the following formula: peak area ratio = peak area of metabolite / peak area of internal standard [formula]
(§4) The half maximal inhibitory concentrations (IC50) against CYP were calculated using Excel XLfit 5.3.1.3.
Procedure for CYP2C9: as §1, §2, §3, §4

What is called solubility is how much of the substance goes into solution per volume. The low end stands for little dissolved substance, the high end for much dissolved substance. For `C[C@@H]1COc2c(-c3nc(N[C@@H]4CCOC[C@H]4O)ncc3Cl)cc(F)c3nc(C(C)(C)O)n1c23` (single isomer, unassigned) [Isomer 2 with a retention time of 1.887 min], the pIC50 on CDK1/CyclinB is under 6.00; on CYP2C19 it was under 4.52; on CDK9/CyclinT1, under 6.00; against CYP2C9, under 4.52; at CDK6/CyclinD3 it was 6.64. Besides, in data set [1], the solubility at 24 h turned out to be 2130 µM (≈ 1020 µg/mL).

As for `C[C@H]1COc2c(-c3nc(N[C@@H]4CCOC[C@H]4O)ncc3Cl)cc(F)c3nc(C(C)(C)O)n1c23` (single isomer, unassigned) [Isomer 1 with a retention time of 2.078 min], the pIC50 at CDK1/CyclinB was under 6.00; on CYP2C19, under 4.52; on CDK9/CyclinT1, under 6.00; at CYP2C9 it was under 4.52; on CDK6/CyclinD3 it was 6.98. The compound also displayed a solubility at 24 h in data set [1] of 2200 µM (≈ 1050 µg/mL).
